Literature values as cited in paper PMC9289467, “A Novel Multifunctional 5,6-Dimethoxy-Indanone-Chalcone-Carbamate Hybrids Alleviates Cognitive Decline in Alzheimer’s Disease by Dual Inhibition of Acetylcholinesterase and Inflammation” (Frontiers in Aging Neuroscience, 2022).

Key:
[1] = tested on: cerebrospinal fluid (CSF) Aβ; settings: chronic treatment, patients with AD; ref Nitsch et al., 2000; cited from earlier work
[2] = tested on: AChE-induced Aβ fibrillization; settings: PAS inhibitors; ref Inestrosa et al., 1996; cited from earlier work
APP processing = settings: rat brains; ref Farber et al., 1995; cited from earlier work

Compound	cerebrospinal fluid (CSF) Aβ levels [1]	effect of AChE on Aβ fibril aggregation process [2]	APP processing (APP processing)
CC1OC2(CS1)CN1CCC2CC1 (centres unmarked) [AF102B]	markedly lowered		
CC[N+](C)(CC)CCC[n+]1c(-c2ccccc2)c2cc(N)ccc2c2ccc(N)cc21 [Propidium]		capable of preventing	
CNC(=O)Oc1ccc2c(c1)[C@]1(C)CCN(C)[C@@H]1N2C [physostigmine]	did not show a significant effect		did not change APP processing
fasciculin		capable of preventing	
